# Test results as given in patent publication US8993765B2, “Tetrahydro-azacarboline MCH-1 antagonists, methods of making, and uses thereof” (Albany Molecular Research, Inc., priority 2010, dated 2015).
# Counter-ions that a name gives are not always drawn. Like-named read-outs stand apart in the source and are kept apart here.
# Key:
# [1] = target: human MCH-1 receptor (Homo sapiens (Human), UniProt Q99705); assay: Binding Assay for Human Melanin-Concentrating Hormone (MCH-1) Receptor; settings: membranes of CHO-K1 cells expressing human MCH-1 receptor; for Ki: radioligand displacement, Ki by Cheng Prusoff equation, read-out: MCH1 Ki
# Chain of human MCH-1 receptor (Q99705 whole entry): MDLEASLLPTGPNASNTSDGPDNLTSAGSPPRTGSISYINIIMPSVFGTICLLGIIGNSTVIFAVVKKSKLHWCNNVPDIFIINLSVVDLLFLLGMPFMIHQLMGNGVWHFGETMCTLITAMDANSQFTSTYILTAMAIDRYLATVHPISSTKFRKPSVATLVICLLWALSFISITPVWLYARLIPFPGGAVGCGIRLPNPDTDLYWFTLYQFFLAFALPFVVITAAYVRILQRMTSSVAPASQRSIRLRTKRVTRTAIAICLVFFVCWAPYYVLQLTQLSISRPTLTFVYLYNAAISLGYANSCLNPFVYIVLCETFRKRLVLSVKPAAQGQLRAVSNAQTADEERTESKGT
# Procedure: Binding Assay for Human Melanin-Concentrating Hormone (MCH-1) Receptor
# Evaluation of the affinity of compounds for the human MCH-1 receptor was accomplished using 4-(3,4,5-tritritiumbenzyloxy)-1-(1-(2-(pyrrolidin-1-yl)ethyl)-1H-indazol-5-yl)pyridin-2(1H)-one and membranes prepared from stable CHO-K1 cells expressing the human MCH-1 receptor obtained from Euroscreen (Batch 1138). Cell membrane homogenates (8.92 μg protein) were incubated for 60 min at 25° C. with […] of the [^3H]-labeled compound in the absence or presence of the test compound in 50 mM Tris-HCl buffer, pH 7.4. Nonspecific binding was determined in the presence of 50 μM 1-(5-(4-cyanophenyl)bicyclo[3.1.0]hexan-2-yl)-3-(4-fluoro-3-(trifluoromethyl)phenyl)-1-(3-(4-methylpiperazin-1-yl)propyl)urea. Following incubation, the samples were filtered rapidly under vacuum through Skatron 11731 filters, pre-soaked in 0.5% polyethylenimine, and washed with ice-cold 50 mM Tris-HCl buffer, pH 7.4, (wash setting 9,9,0) using a Skatron cell harvester. The filters were counted for radioactivity in a liquid scintillation counter (Tri-Carb 2100TR, Packard) using a scintillation cocktail (Ultima Gold MV, Perkin Elmer).
# The results are expressed as a percent inhibition of the control radioligand specific binding. The IC50 value (concentration causing a half-maximal inhibition of control specific binding) and Hill coefficient (nH) were determined by non-linear regression analysis of the competition curve using Hill equation curve fitting. The inhibition constant (Ki) was calculated from the Cheng Prusoff equation: (Ki=IC50/(1+(L/KD)), where L=concentration of radioligand in the assay, and KD=affinity of the radioligand for the receptor.
Ki [1] [nM],SMILES,other results
,"O=c1cc(-c2ccc(C(F)(F)F)nc2)ccn1-c1ccn2c3c(nc2c1)CCNC3 (as salt: hydrochloride) [Example 24, 1-(1,2,3,4-Tetrahydropyrido[4′,3′:4,5]imidazo[1,2-a]pyridin-7-yl)-4-(6-(trifluoromethyl)pyridin-3-yl)pyridin-2(1H)-one hydrochloride]",melting point: 265 °C (dec.)
,"O=c1cc(OCc2ccc(C(F)(F)F)nc2)ccn1-c1ccn2c3c(nc2c1)CCNC3 (as salt: hydrochloride) [Example 25, 1-(1,2,3,4-Tetrahydropyrido[4′,3′:4,5]imidazo[1,2-a]pyridin-7-yl)-4-((6-(trifluoromethyl)pyridin-3-yl)methoxy)pyridin-2(1H)-one hydrochloride]",melting point: 265 °C (dec.)
,"CC1Cc2c(c3ccc(-n4ccc(OCc5ccccc5)cc4=O)nc3n2C)CN1 (single isomer, unassigned; (-)) [Example 17, (−)-4-(Benzyloxy)-1-(7,9-dimethyl-5,7,8,9-tetrahydro-6H-pyrido[3′,4′:4,5]pyrrolo[2,3-b]pyridin-2-yl)pyridin-2(1H)-one hydrochloride]",Ki ([1]; hydrochloride): 9.1 nM
81,"CC(=O)N1Cc2c(n(C)c3nc(-n4ccc(OCc5ccccc5)cc4=O)ccc23)CC1C (single isomer, unassigned; enantiomer a) [Example 29, 1-(6-Acetyl-7,9-dimethyl-5,7,8,9-tetrahydro-6H-pyrido[3′,4′:4,5]pyrrolo[2,3-b]pyridin-2-yl)-4-(benzyloxy)pyridin-2(1H)-one (Enantiomer A)]",
7.1,"Cn1c2c(c3ccc(-n4ccc(OCc5ccccc5)cc4=O)nc31)CNCC2 [Example 2, 4-(Benzyloxy)-1-(9-methyl-5,7,8,9-tetrahydro-6H-pyrido[3′,4′:4,5]pyrrolo[2,3-b]pyridin-2-yl)pyridin-2(1H)-one dihydrochloride]",
47,"Cn1c2c(c3ccc(N4CCN(CCc5ccccc5)CC4=O)nc31)CNCC2 [Example 3, 1-(9-Methyl-5,7,8,9-tetrahydro-6H-pyrido[3′,4′:4,5]pyrrolo[2,3-b]pyridin-2-yl)-4-phenethylpiperazin-2-one dihydrochloride]",
15,"Cn1c2c(c3ccc(-n4ccc(OCc5ccc(F)cn5)cc4=O)nc31)CNCC2 [Example 4, 4-((5-Fluoropyridin-2-yl)methoxy)-1-(9-methyl-5,7,8,9-tetrahydro-6H-pyrido[3′,4′:4,5]pyrrolo[2,3-b]pyridin-2-yl)pyridin-2(1H)-one hydrochloride]",
105,"Cn1c2c(c3ccc(-n4ccc(-c5ccc(C(F)(F)F)nn5)cc4=O)nc31)CNCC2 [Example 5, 1-(9-Methyl-5,7,8,9-tetrahydro-6H-pyrido[3′,4′:4,5]pyrrolo[2,3-b]pyridin-2-yl)-4-(6-(trifluoromethyl)pyridazin-3-yl)pyridin-2(1H)-one hydrochloride]",
15,"Cn1c2c(c3ccc(-n4ccc(-c5ccc(C(F)(F)F)nc5)cc4=O)nc31)CNCC2 [Example 6, 1-(9-Methyl-5,7,8,9-tetrahydro-6H-pyrido[3′,4′:4,5]pyrrolo[2,3-b]pyridin-2-yl)-4-(6-(trifluoromethyl)pyridin-3-yl)pyridin-2(1H)-one hydrochloride]",
71,"Cn1c2c(c3ccc(-n4ccc(OCc5ccc(C(F)(F)F)nc5)cc4=O)nc31)CNCC2 [Example 7, 1-(9-Methyl-5,7,8,9-tetrahydro-6H-pyrido[3′,4′:4,5]pyrrolo[2,3-b]pyridin-2-yl)-4-((6-(trifluoromethyl)pyridin-3-yl)methoxy)pyridin-2(1H)-one hydrochloride]",
33,"Cn1c2c(c3ccc(-n4ccc(-c5ccc(C(F)(F)F)cn5)cc4=O)nc31)CNCC2 [Example 8, 1-(9-Methyl-5,7,8,9-tetrahydro-6H-pyrido[3′,4′:4,5]pyrrolo[2,3-b]pyridin-2-yl)-4-(5-(trifluoromethyl)pyridin-2-yl)pyridin-2(1H)-one hydrochloride]",
78,"CC(=O)N1CCc2c(c3ccc(-n4ccc(-c5ccc(C(F)(F)F)nc5)cc4=O)nc3n2C)C1 [Example 9, 1-(6-Acetyl-9-methyl-5,7,8,9-tetrahydro-6H-pyrido[3′,4′:4,5]pyrrolo[2,3-b]pyridin-2-yl)-4-(6-(trifluoromethyl)pyridin-3-yl)pyridin-2(1H)-one]",melting point: 238 to 242 °C
4.7,"Cl.Cn1c2c(c3ccc(-n4ccc(-c5ccc(C(F)(F)F)cc5)cc4=O)nc31)CNCC2 [Example 10, 1-(9-Methyl-5,7,8,9-tetrahydro-6H-pyrido[3′,4′:4,5]pyrrolo[2,3-b]pyridin-2-yl)-4-(4-(trifluoromethyl)phenyl)pyridin-2(1H)-one hydrochloride]",melting point: 278 to 281 °C (dec.)
71,"CC(=O)N1CCc2c(c3ccc(-n4ccc(OCc5ccccc5)cc4=O)nc3n2C)C1 [Example 11, 1-(6-Acetyl-9-methyl-5,7,8,9-tetrahydro-6H-pyrido[3′,4′:4,5]pyrrolo[2,3-b]pyridin-2-yl)-4-(benzyloxy)pyridin-2(1H)-one]",melting point: 206 to 208 °C
58,"CC1Cc2c(c3ccc(N4CCN(CCc5ccc(F)cc5)CC4=O)nc3n2C)CN1.Cl (stereo not shown) [Example 12, 1-(7,9-Dimethyl-5,7,8,9-tetrahydro-6H-pyrido[3′,4′:4,5]pyrrolo[2,3-b]pyridin-2-yl)-4-(4-fluorophenethyl)piperazin-2-one hydrochloride]",melting point: 252 to 256 °C
,"CC1Cc2c(c3ccc(-n4ccc(OCc5ccccc5)cc4=O)nc3n2C)CN1.Cl (stereo not shown) [Example 13, 4-(Benzyloxy)-1-(7,9-dimethyl-5,7,8,9-tetrahydro-6H-pyrido[3′,4′:4,5]pyrrolo[2,3-b]pyridin-2-yl)pyridin-2(1H)-one hydrochloride]",Ki ([1]; hydrochloride): 9.3 nM; melting point: 285 to 289 °C
17,"Cn1c2c(c3ccc(-n4ccc(OCc5ccc(Cl)cc5Cl)cc4=O)nc31)CNCC2 [Example 15, 4-((2,4-Dichlorophenyl)methoxy)-1-(9-methyl-5,7,8,9-tetrahydro-6H-pyrido[3′,4′:4,5]pyrrolo[2,3-b]pyridin-2-yl)pyridin-2(1H)-one hydrochloride]",
62,"O=c1cc(OCc2ccccc2)ccn1-c1ccc2c(c1)nc1n2CCNC1 [Example 18, 4-(Benzyloxy)-1-(1,2,3,4-tetrahydropyrazino[1,2-a]benzimidazol-8-yl)pyridin-2(1H)-one hydrochloride]",
,"O=c1cc(-c2ccc(C(F)(F)F)cc2)ccn1-c1ccc2c(c1)nc1n2CCNC1 [Example 20, 1-(1,2,3,4-Tetrahydropyrazino[1,2-a]benzimidazol-8-yl)-4-(4-(trifluoromethyl)phenyl)pyridin-2(1H)-one hydrochloride]","inhibition at 1 µM ([1]; @ 1 uM test compound, read-out: MCH1 percent inhibition of control radioligand specific binding): 61%"
94,"CC(C)N1CCn2c(nc3cc(-n4ccc(OCc5ccccc5)cc4=O)ccc32)C1 [Example 21, 4-(Benzyloxy)-1-(2-(propan-2-yl)-1,2,3,4-tetrahydropyrazino[1,2-a]benzimidazol-8-yl)pyridin-2(1H)-one hydrochloride]",
30,"O=c1cc(OCc2ccc(F)cn2)ccn1-c1ccn2c3c(nc2c1)CCNC3 [Example 23, 4-((5-Fluoropyridin-2-yl)methoxy)-1-(1,2,3,4-tetrahydropyrido[4′,3′:4,5]imidazo[1,2-a]pyridin-7-yl)pyridin-2(1H)-one hydrochloride]",
616,"O=c1cc(-c2ccc(C(F)(F)F)nc2)ccn1-c1ccn2c3c(nc2c1)CCNC3 [Example 24, 1-(1,2,3,4-Tetrahydropyrido[4′,3′:4,5]imidazo[1,2-a]pyridin-7-yl)-4-(6-(trifluoromethyl)pyridin-3-yl)pyridin-2(1H)-one hydrochloride]",
3320,"O=c1cc(OCc2ccc(C(F)(F)F)nc2)ccn1-c1ccn2c3c(nc2c1)CCNC3 [Example 25, 1-(1,2,3,4-Tetrahydropyrido[4′,3′:4,5]imidazo[1,2-a]pyridin-7-yl)-4-((6-(trifluoromethyl)pyridin-3-yl)methoxy)pyridin-2(1H)-one hydrochloride]",
19,"CC(C)N1CCc2nc3cc(-n4ccc(OCc5ccccc5)cc4=O)ccn3c2C1 [Example 27, 4-(Benzyloxy)-1-(2-(propan-2-yl)-1,2,3,4-tetrahydropyrido[4′,3′:4,5]imidazo[1,2-a]pyridin-7-yl)pyridin-2(1H)-one hydrochloride]",
103,"Cn1c2c(c3ccc(-n4ccc(OCc5ccccc5)cc4=O)nc31)C(=O)NCC2 [Example 28, 4-(Benzyloxy)-1-(9-methyl-5-oxo-5,7,8,9-tetrahydro-6H-pyrido[3′,4′:4,5]pyrrolo[2,3-b]pyridin-2-yl)pyridin-2(1H)-one]",

SMILES,Ki [1] [nM],other results
"O=c1cc(-c2ccc(C(F)(F)F)cc2)ccn1-c1ccn2c3c(nc2c1)CCNC3 [Example 26, 1-(1,2,3,4-Tetrahydropyrido[4′,3′:4,5]imidazo[1,2-a]pyridin-7-yl)-4-(4-(trifluoromethyl)phenyl)pyridin-2(1H)-one hydrochloride]",23,
